A short description of this series: Solubility of the di-chain cationic surfactant (distearyldimonium chloride) in oils. The conditions noted are these: for Evaluation Result (state of the solution of distearyldimonium chloride in the oil): 1 g distearyldimonium chloride mixed and heated to dissolve in 100 g of oil, at rest 24 hours at ambient temperature; for Dissolution of the di-chain cationic surfactant in the oil (text summary of Table 1): 1 g in 100 g oil, 24 hours at ambient temperature.

In the case of `CC(C)CCCCCCCCCCCCCCCOC(=O)CC(O)C(=O)OCCCCCCCCCCCCCCCC(C)C` (centres unmarked) [Diisostearyl malate], the “Evaluation Result (state of the solution of distearyldimonium chloride in the oil)” value (from here on “Evaluation Result”) is given as “○” and the “Dissolution of the di-chain cationic surfactant in the oil (text summary of Table 1)” value (“Dissolution” below) is given as “homogeneously dissolved”.
Consider `CCCCC(CC)COCC(O)CO` (centres unmarked) [Ethylhexylglycerin], for which the “Evaluation Result” value is “○” and the “Dissolution” value is reported as “homogeneously dissolved”.
As to `CC(C)CCCCCCCCCCCCCCCO` [Isostearyl alcohol], the “Dissolution” value is given as “homogeneously dissolved”.
The same measure, in the same setting: as for `CCCCCCCCCCC(CO)CCCCCCCC` (centres unmarked) [Octyldodecanol], the entry is “homogeneously dissolved”.
In the case of Glyceryl diisostearate, the “Evaluation Result” value is recorded as “○” and the “Dissolution” value is listed as “homogeneously dissolved”.

The record behind these values is patent US12161741B2, “Skin gel preparation for external use” (Shiseido Company, Ltd., priority 2018, dated 2024).
